Data taken from US20250206729A1, “DUAL RAF AND TUBULIN INHIBITORS AND METHODS OF USE THEREOF” (Deciphera Pharmaceuticals, LLC, priority 2023, published 2025).

Experiments:
[1] = molecular target: T1, B-Raf kinase (SEQ ID NO: 1) (Homo sapiens, UniProt P15056); test: Biochemical assay for B-Raf (coupled pyruvate kinase/lactate dehydrogenase); settings: 1 mM ATP; read-out: BRAF (inhibition of biochemical activity, IC50)
T1 construct: GST (N); purchased Sigma

[2] = molecular target: T2, C-Raf kinase (SEQ ID NO: 2) (Homo sapiens, UniProt P04049, Y340D/Y341D); test: Biochemical assay for C-Raf (coupled pyruvate kinase/lactate dehydrogenase); settings: 1 mM ATP; read-out: CRAF (inhibition of biochemical activity, IC50)
T2 construct: C-Raf residues 306-end; Y340D, Y341D with N-; GST (N); purchased Sigma

MiaPaca-2 cells = test: MiaPaca-2 cell proliferation assay; assay type: cell-based; settings: Homo sapiens, MIA PaCa-2; 67-72 h incubation, resazurin; read-out: MiaPaca-2 (inhibition of cell proliferation, IC50)
Experimental: Miapaca-2 cells (catalog #CRL-1420) are obtained from the American Type Culture Collect (ATTC, Manassas, VA). Briefly, cells were grown in DMEM supplemented with 10% characterized fetal bovine serum (Invitrogen, Carlsbad, CA), 2.5% New Zealand sourced horse serum and 1% Penicillin/Streptomycin/L-Glutamine at 37° C., 5% CO2, and 95% humidity. Cells are expanded until reaching 70-95% confluency at which point they are sub-cultured or harvested for assay use. A serial dilution of test compound is dispensed into a 384-well black clear bottom plate in triplicate. Seven hundred fifty cells are added per well in 50 μL complete growth medium in the 384-well plate. Plates are incubated for 67-72 h at 37° C., 5% CO2, and 95% humidity. At the end of the incubation, 10 μL of a 440 μM solution of resazurin (Sigma, St. Louis, MO) in PBS is added to each well of the plate and plates are incubated for an additional 5-6 h at 37° C., 5% CO2, and 95% humidity. Plates are read on a Synergy2 or equivalent reader (Biotek, Winooski VT) using an excitation of 540 nm and an emission of 600 nm. Data is analyzed using Prism software (GraphPad, San Diego, CA) to calculate IC50 values.

HCT-116 cells = test: HCT-116 cell proliferation assay; assay type: cell-based; settings: Homo sapiens, HCT-116; 67 to 72 h incubation, resazurin; read-out: HCT-116 (inhibition of cell proliferation, IC50)
Experimental: HCT-116 cells (catalog #CCL-247) are obtained from the American Type Culture Collect (ATCC, Manassas, VA). Briefly, cells are grown in McCoy's 5A supplemented with 10% characterized fetal bovine serum (Invitrogen, Carlsbad, CA) and 1% Penicillin/Streptomycin/L-Glutamine at 37° C., 5% CO2, and 95% humidity. Cells are expanded until reaching 70-95% confluency at which point they are sub-cultured or harvested for assay use. A serial dilution of test compound is dispensed into a 384-well black clear bottom plate in triplicate. 375 cells are added per well in 50 μL complete growth medium in the 384-well plate. Plates are incubated for 67 to 72 h at 37° C., 5% CO2, and 95% humidity. At the end of the incubation, 40 μL of a […] solution of resazurin (Sigma, St. Louis, MO) in PBS is added to each well of the plate and plates are incubated for an additional 4 to 5 h at 37° C., 5% CO2, and 95% humidity. Plates are read on a Synergy2 or equivalent reader (Biotek, Winooski, VT) using an excitation of 540 nm and an emission of 600 nm. Data is analyzed using Prism software (Graphpad, San Diego, CA) to calculate IC50 values.

HPAF-II cells = test: HPAF-II cell proliferation assay; assay type: cell-based; settings: Homo sapiens, HPAF-II; 115 to 120 h incubation, resazurin; read-out: HPAF-II (inhibition of cell proliferation, IC50)
Experimental: (§1) HPAF-II cells (catalog #CRL-1997) are obtained from the American Type Culture Collect (ATCC, Manassas, VA). Briefly, cells are grown in Minimum Essential Media supplemented with 10% characterized fetal bovine serum (Invitrogen, Carlsbad, CA) and 1% Penicillin/Streptomycin/L-Glutamine at 37° C., 5% CO2, and 95% humidity. Cells are expanded until reaching 70-95% confluency at which point they are sub-cultured or harvested for assay use. A serial dilution of test compound is dispensed into a 384-well black clear bottom plate in triplicate. 750 cells are added per well in 50 μL complete growth medium in the 384-well plate. Plates are incubated for 115 to 120 h at 37° C., 5% CO2, and 95% humidity. At the end of the incubation, 40 μL of a […] solution of resazurin (Sigma, St. Louis, MO) in PBS is added to each well of the plate and plates are incubated for an additional 18 to 24 h at 37° C., 5% CO2, and 95% humidity. Plates are read on a Synergy2 or equivalent reader (Biotek, Winooski, VT) using an excitation of 540 nm and an emission of 600 nm. Data is analyzed using Prism software (Graphpad, San Diego, CA) to calculate IC50 values.

Pa16c cells = test: Pa16c cell proliferation assay; assay type: cell-based; settings: 67 to 72 h incubation, resazurin; read-out: Pa16c (inhibition of cell proliferation, IC50)
Experimental: as §1, with “Pa16c” for “HPAF-II”, “cells” for “cells (catalog #CRL-1997)”, “Dr. Channing Der, University of North Carolina at Chapel Hill.” for “the American Type Culture Collect (ATCC, Manassas, VA).”, “Dulbecco's Modified Eagle Medium” for “Minimum Essential Media”, “67” for “115”, “72” for “120”

T2 sequence (P04049 307-648 Y340D/Y341D): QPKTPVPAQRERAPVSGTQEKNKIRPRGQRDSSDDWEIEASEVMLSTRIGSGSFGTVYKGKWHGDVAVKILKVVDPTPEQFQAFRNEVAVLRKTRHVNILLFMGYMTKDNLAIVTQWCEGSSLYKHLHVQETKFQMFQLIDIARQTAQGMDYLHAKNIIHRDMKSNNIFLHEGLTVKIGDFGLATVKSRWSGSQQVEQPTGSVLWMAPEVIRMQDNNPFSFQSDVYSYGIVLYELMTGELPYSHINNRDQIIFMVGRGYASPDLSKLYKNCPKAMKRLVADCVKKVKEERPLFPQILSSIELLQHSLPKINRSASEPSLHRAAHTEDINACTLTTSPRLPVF
T1 sequence (P15056 416-766): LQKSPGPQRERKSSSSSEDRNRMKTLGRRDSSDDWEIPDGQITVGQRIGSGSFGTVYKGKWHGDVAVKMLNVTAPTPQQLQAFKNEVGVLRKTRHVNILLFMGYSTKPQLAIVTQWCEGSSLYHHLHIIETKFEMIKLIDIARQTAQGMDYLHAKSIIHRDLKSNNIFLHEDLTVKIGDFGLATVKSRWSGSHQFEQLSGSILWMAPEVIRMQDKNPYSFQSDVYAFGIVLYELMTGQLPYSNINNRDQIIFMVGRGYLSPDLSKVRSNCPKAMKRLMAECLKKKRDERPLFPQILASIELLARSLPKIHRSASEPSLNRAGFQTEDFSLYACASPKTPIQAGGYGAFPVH

Compound	IC50 [1]	IC50 [2]	IC50 (MiaPaca-2 cells)	IC50 (HCT-116 cells)	IC50 (HPAF-II cells)	IC50 (Pa16c cells)
Cc1ccc(NC(=O)c2cc(C(C)C)cnn2)cc1-c1cncc(N2CCOCC2)n1 [Example 56]	100 to 500 nM	100 to 500 nM	1000 to 10000 nM	1000 to 10000 nM	1000 to 10000 nM	1000 to 10000 nM
Cc1ccc(NC(=O)c2cncc(C(C)C)n2)cc1-c1cc(N[C@H](C)CO)nc(N2CCOCC2)c1 [Example 57, (R)—N-(3-(2-((1-hydroxypropan-2-yl)amino)-6-morpholinopyridin-4-yl)-4-methylphenyl)-6-isopropylpyrazine-2-carboxamide]	100 to 500 nM	100 to 500 nM	1000 to 10000 nM	1000 to 10000 nM	1000 to 10000 nM	1000 to 10000 nM
Cc1ccc(NC(=O)c2cc(C(C)C)cnn2)cc1-c1ccnc(N2CCOCC2)c1 [Example 58]	100 to 500 nM	< 100 nM	500 to 1000 nM	100 to 500 nM	100 to 500 nM	100 to 500 nM
Cc1ccc(NC(=O)c2cc(C(F)(F)F)cnn2)cc1-c1cncc(N2CCOCC2)n1 [Example 59]	1000 to 10000 nM	1000 to 10000 nM	500 to 1000 nM	500 to 1000 nM	500 to 1000 nM	100 to 500 nM
CNc1cc(-c2cc(NC(=O)c3cc(C4CC4)cnn3)ccc2C)cc(N2CCOCC2)n1 [Example 60]	100 to 500 nM	< 100 nM	< 100 nM	< 100 nM	< 100 nM	< 100 nM
CNc1cc(-c2cc(NC(=O)c3cc(C(F)(F)F)cnn3)ccc2C)cc(N2CCOCC2)n1 [Example 61]	< 100 nM	< 100 nM	< 100 nM	< 100 nM	< 100 nM	< 100 nM
Cc1ccc(NC(=O)c2cncc(C3CC3)n2)cc1-c1cc(N[C@H](C)CO)nc(N2CCOCC2)c1 [Example 62]	100 to 500 nM	< 100 nM	1000 to 10000 nM	1000 to 10000 nM	1000 to 10000 nM	1000 to 10000 nM
Cc1ccc(NC(=O)c2cc(C(C)(F)F)cnn2)cc1-c1cc(OCCO)nc(N2CCOCC2)c1 [Example 63]	< 100 nM	< 100 nM	< 100 nM	< 100 nM	< 100 nM	< 100 nM
Cc1ccc(NC(=O)c2cc(C(C)(F)F)cnn2)cc1-c1cc(NCCO)nc(N2CCOCC2)c1 [Example 64]	< 100 nM	< 100 nM	< 100 nM	< 100 nM	< 100 nM	< 100 nM
Cc1ccc(NC(=O)c2cc(Cl)cnn2)cc1-c1cncc(N2CCOCC2)n1 [Example 65]	1000 to 10000 nM	1000 to 10000 nM	1000 to 10000 nM	1000 to 10000 nM	1000 to 10000 nM	1000 to 10000 nM
Cc1ccc(NC(=O)c2cc(C(C)(F)F)cnn2)cc1-c1cc(N[C@H](C)CO)nc(N2CCOCC2)c1 [Example 66]	< 100 nM	< 100 nM	< 100 nM	< 100 nM	< 100 nM	< 100 nM
